Results taken from ChEMBL document CHEMBL1148179, “Structural revisions of some non-adjacent bis-tetrahydrofuran annonaceous acetogenins” (1993).
≈ marks a conversion by molar mass, not a printed value.

Experiments:
Format in all cases: functional
[1] = tested on: A549; experiment: Cytotoxicity against human A549 cells
[2] = tested on: MCF7; experiment: Cytotoxicity against human MCF7 cells; conditions: read-out: ED50 (the source's name)
[3] = tested on: HT-29; experiment: Cytotoxicity against human HT-29 cells; conditions: read-out: ED50 (the source's name)

Row | Compound | ED50 [1] | EC50 [2] | EC50 [3]
1 | CCCCCC[C@H](O)CCC[C@H](O)[C@H]1CC[C@H]([C@H]2CC(O)[C@H]([C@H](O)CCCCCCCCCCCCC3=C[C@H](C)OC3=O)O2)O1 (stereo partly specified) [ANNONIN XVI] | <1 ×10⁻⁸ ug/ml | 1.46 µg/mL (≈ 2.29 µM) | 1.42 µg/mL (≈ 2.22 µM)
2 | COc1cccc2c1C(=O)c1c(O)c3c(c(O)c1C2=O)C[C@@](O)(C(=O)CO)C[C@@H]3O[C@H]1C[C@H](N)[C@H](O)[C@H](C)O1 [DOXORUBICIN] | 2.08 ×10⁻⁴ ug/ml | 0.0913 µg/mL (≈ 0.168 µM) | 0.0013 µg/mL (≈ 0.00239 µM)
